The source of these data is patent US20230295096A1, “PYRAZOLE CARBOXAMIDE COMPOUNDS FOR TREATMENT OF HBV” (ASSEMBLY BIOSCIENCES, INC., priority 2020, published 2023).

Structures are written as SMILES. Read-outs that look alike come from different tables or passages of the source.

This assay concerns HBV. Description: Viral load production from HepAD38 cells, qPCR of the HBV core sequence in supernatant. It is filed as cell-based. As to the method: HepAD38 cells grown in a T-150 flask (Corning, cat#: 430825) with Growth Medium (DMEM/F12 (1:1) (Hyclone, cat#: SH30023.02), 1X Pen/Strep (Invitrogen, cat#: 15140-122), 10% FBS (Tissue Culture Biologics, cat#: 101), 250 µg/mL G418 (Alfa Aesar, cat#: J62671), 1 µg/mL Tetracycline (Teknova, cat#: T3320)) were detached with 0.25% trypsin-EDTA (Invitrogen, cat#: 25200-056). Tetracycline-free treatment medium (15 mL DMEM/F12 (1:1) 1× Pen/step, with 2% FBS, Tet-system approved (Clontech, cat#: 631106) were then added to mix, transferred into a 50 ml conical tube (Falcon, cat#: 21008-918,) and spun at 1300 rpm for 5 min. Pelleted cells were then re-suspended/washed with 50 mL of 1X DPBS (Invitrogen, cat#: 14190-136) 2 times and 50 mL treatment medium twice. HepAD38 cells were then re-suspended with 10 mL of treatment medium, syringed and counted. Wells of 96-well clear bottom TC plate (Corning, cat#: 3904,) were seeded at 50.000 cells/well in 180 µL of treatment medium, and 20 µL of either 10% DMSO (Sigma, cat#: D4540) as controls or a 10X solution of test compounds in 10% DMSO in treatment media was added for a final compound concentration starting at 10 µM, and plates were incubated in 5% CO2 incubator at 37° C. for 5 days.
Subsequently viral load production was assayed by quantitative PCR (qPCR) of the HBV core sequence. PCR reaction mixture containing forward primers HBV-f 5′-CTGTGCCTTGGGTGGCTTT-3′ (IDT DNA), Reverse primers HBV-r 5′-[…]-3′ (IDT DNA), Fluorescent TaqMan^tm Probes HBV-probe 5′-FAM/AGCTCCAAA/ZEN/[…]/3IABkFQ-3′ (IDT DNA), 10 µL/well of PerfeCTa® qPCR ToughMix® (Quanta Biosciences, Cat#: 95114-05 K), and 6 µL/well of DEPC water (Alfa Aesar, cat#: J62087) was prepared. Four µL of supernatant was added to 16 µL of the reaction mixture in a qPCR plate (Applied Biosytems, Cat#: 4309849), sealed with a film (Applied Biosystems, Cat#: 4311971), centrifuged for a few seconds, and subsequently run on an Applied Biosystems VIIA7. The PCR mixture was incubated at 45° C. for 5 min, then 95° C. for 10 min, followed by 40 cycles of 10 seconds at 95° C. and 20 seconds at 60° C. Viral load was quantified against known HBV DNA standards by using ViiA™ 7 Software. Viral load in the supernatant from wells with treated cells were compared against viral load in supernatant from DMSO control wells (≥ 3 per plate). Cell viability assay was performed with CellTiter-Glo Luminescent Cell Viability Assay (Promega, cat#: G7573) with modification. Mixed appropriate amount of CellTiter-Glo (CTG) 1X DPBS in a 1:1 ratio, added 100 uL of the mixture to each well followed completely removal of all supernatant in each well without touching cell surface. Incubated the plate at room temperature for 10 min on an orbital shaker, and then read the plate with a plate reader (TECAN M1000 or Envision). EC50 or CC50 values were calculated through curve-fitting of the four-parameter nonlinear-logistic-regression model (GraphPad Prism or Dotmatics). CC50 values were all >10 µM.

[1] abbreviates: Hepatitis B virus, HePAD38, 120 h, HepAD38 cells, 5 days, HBV DNA in supernatant by qPCR, Table 2 ranges, read-out: VL HepAD38 EC50 range.
[2] abbreviates: HepAD38 cells, 5 days, HBV DNA in supernatant by qPCR, Table 2 ranges, read-out: VL HepAD38 EC50 range.
The mark [3] stands for this setting: HepAD38 cells, 5 days, HBV DNA in supernatant by qPCR, Table 1 ranges, read-out: Activity (viral load lowering EC50).
Where [4] appears, read: Hepatitis B virus, HePAD38, 120 h, HepAD38 cells, 5 days, HBV DNA in supernatant by qPCR, Table 1 ranges, read-out: Activity (viral load lowering EC50).

With `Cn1nc(C2CC3CC(O)C(c4ccccc4)C3C2)c(C(=O)Nc2ccc(F)c(Cl)c2)c1N` (single isomer, unassigned) [Example 141, 5-Amino-N-(3-chloro-4-fluorophenyl)-3-(5-hydroxy-4-phenyloctahydropentalen-2-yl)-1-methyl-1H-pyrazole-4-carboxamide], the EC50 under setting [1] was below 100 nM.
Turning to `Cn1nc(C2CC3CC(O)C(c4ccccc4)C3C2)c(C(=O)Nc2ccc(F)c(Cl)c2)c1N` (single isomer, unassigned) [Example 142, 5-Amino-N-(3-chloro-4-fluorophenyl)-3-(5-hydroxy-4-phenyloctahydropentalen-2-yl)-1-methyl-1H-pyrazole-4-carboxamide], under setting [2], the EC50 is below 100 nM.
The same measure, in the same setting: in the case of `Cn1nc(C2CC3CC(c4ccccc4)C(O)C3C2)c(C(=O)Nc2ccc(F)c(Cl)c2)c1N` (single isomer, unassigned) [Example 143, 5-Amino-N-(3-chloro-4-fluorophenyl)-3-(4-hydroxy-5-phenyloctahydropentalen-2-yl)-1-methyl-1H-pyrazole-4-carboxamide] it was below 100 nM; in that of `Cn1nc(C2CC3CC(c4ccccc4)C(O)C3C2)c(C(=O)Nc2ccc(F)c(Cl)c2)c1N` (single isomer, unassigned) [Example 144, 5-Amino-N-(3-chloro-4-fluorophenyl)-3-(4-hydroxy-5-phenyloctahydropentalen-2-yl)-1-methyl-1H-pyrazole-4-carboxamide], below 100 nM.
As to `Cn1nc(C2CC3CC(c4ccccc4)C(O)C3C2)c(C(=O)Nc2ccc(F)c(Cl)c2)c1N` (single isomer, unassigned) [Example 145, 5-Amino-N-(3-chloro-4-fluorophenyl)-3-(4-hydroxy-5-phenyloctahydropentalen-2-yl)-1-methyl-1H-pyrazole-4-carboxamide], under setting [1], the EC50 was below 100 nM.
`Cn1nc(C2CC3CC(O)(CNc4ncc(C(F)F)cn4)CC3C2)c(C(=O)Nc2ccc(F)c(Cl)c2)c1N` (single isomer, unassigned) [Example 202A]: the concentration giving a half-maximal response (EC50) under setting [3] was 10 to 50 nM.
The same measure, in the same setting: in the case of `Cn1nc(C2CC3CC(O)(CNc4ncc(C(F)F)cn4)CC3C2)c(C(=O)Nc2ccc(F)c(Cl)c2)c1N` (single isomer, unassigned) [Example 202B] it was 50 to 500 nM.
`Cn1nc(C(F)(F)F)cc1NCC1(O)CC2CC(c3nn(C)c(N)c3C(=O)Nc3ccc(F)c(Cl)c3)CC2C1` (single isomer, unassigned) [Example 203A]: under setting [4], the EC50 is below 10 nM.
Take `Cn1nc(C(F)(F)F)cc1NCC1(O)CC2CC(c3nn(C)c(N)c3C(=O)Nc3ccc(F)c(Cl)c3)CC2C1` (single isomer, unassigned) [Example 203B]: under setting [3], the EC50 lay in the range of 10 to 50 nM.
Still for that read-out and setting: the value for `Cn1nc(C2CC3CC(O)(CNc4cc(N)ncn4)CC3C2)c(C(=O)Nc2ccc(F)c(Cl)c2)c1N` (single isomer, unassigned) [Example 205A] was below 10 nM; that for `Cn1nc(C2CC3CC(O)(CNc4cc(N)ncn4)CC3C2)c(C(=O)Nc2ccc(F)c(Cl)c2)c1N` (single isomer, unassigned) [Example 205B] was 50 to 500 nM.
As to `Cn1nc([N+](=O)[O-])cc1C1(O)CC2CC(c3nn(C)c(N)c3C(=O)Nc3ccc(F)c(Cl)c3)CC2C1` [Compd. 4-2, 5-amino-N-(3-chloro-4-fluorophenyl)-3-((2 s,3aR,5r,6aS)-5-hydroxy-5-(1-methyl-3-nitro-1H-pyrazol-5-yl)octahydropentalen-2-yl)-1-methyl-1H-pyrazole-4-carboxamide], the EC50 under setting [4] was below 10 nM.
The same measure, in the same setting: in the case of `Cn1nc(C2CC3CC(O)(c4cn(COP(=O)(OC(C)(C)C)OC(C)(C)C)nc4C(F)(F)F)CC3C2)c(C(=O)Nc2ccc(F)c(Cl)c2)c1N` (stereo not shown) [Compd. 6-1, (4-(5-(5-amino-4-((3-chloro-4-fluorophenyl)carbamoyl)-1-methyl-1H-pyrazol-3-yl)-2-hydroxyoctahydropentalen-2-yl)-3-(trifluoromethyl)-1H-pyrazol-1-yl)methyl di-tert-butyl phosphate] it was 10 to 50 nM.
On to `Cn1nc(C2CC3CC(O)(c4cn(COP(=O)(O)OC(C)(C)C)nc4C(F)(F)F)CC3C2)c(C(=O)Nc2ccc(F)c(Cl)c2)c1N` (stereo not shown) [Cpmpd. 6-2, (4-(5-(5-amino-4-((3-chloro-4-fluorophenyl)carbamoyl)-1-methyl-1H-pyrazol-3-yl)-2-hydroxyoctahydropentalen-2-yl)-3-(trifluoromethyl)-1H-pyrazol-1-yl)methyl tert-butyl hydrogen phosphate], for which the EC50 (Hepatitis B virus, HePAD38, 120 h, read-out: Activity (viral load lowering EC50), HepAD38 cells, 5 days, HBV DNA in supernatant by qPCR, Table 1 ranges) is 10 to 50 nM.
For `Cn1nc(C2CC3CC(O)(c4ccccc4)CC3C2)c(C(=O)Nc2ccc(F)c(Cl)c2)c1N` (stereo not shown) [Example 1, 5-Amino-N-(3-chloro-4-fluorophenyl)-3-(5-hydroxy-5-phenyl-octahydropentalen-2-yl)-1-methyl-1H-pyrazole-4-carboxamide], under setting [4], the EC50 was below 10 nM.
On to `C=CCC1(O)CC2CC(c3nn(C)c(N)c3C(=O)Nc3ccc(F)c(Cl)c3)CC2C1` (stereo not shown) [Example 2, 3-(5-Allyl-5-hydroxyoctahydropentalen-2-yl)-5-amino-N-(3-chloro-4-fluorophenyl)-1-methyl-1H-pyrazole-4-carboxamide], for which the EC50 under setting [4] is below 10 nM.
On the same count and under the same terms, in the case of `Cn1nc(C2CC3CC(O)(c4ccc(Cl)cc4)CC3C2)c(C(=O)Nc2ccc(F)c(Cl)c2)c1N` (stereo not shown) [Example 3, 5-Amino-N-(3-chloro-4-fluorophenyl)-3-(5-(4-chlorophenyl)-5-hydroxyoctahydropentalen-2-yl)-1-methyl-1H-pyrazole-4-carboxamide] it was 10 to 50 nM; in that of `Cn1nc(C2CC3CC(O)(c4ccc(F)cc4)CC3C2)c(C(=O)Nc2ccc(F)c(Cl)c2)c1N` (stereo not shown) [Example 4, 5-Amino-N-(3-chloro-4-fluorophenyl)-3-(5-(4-fluorophenyl)-5-hydroxyoctahydropentalen-2-yl)-1-methyl-1H-pyrazole-4-carboxamide], 10 to 50 nM.
On the same count and under the same terms, the value for `COc1ccc(C2(O)CC3CC(c4nn(C)c(N)c4C(=O)Nc4ccc(F)c(Cl)c4)CC3C2)cc1` (stereo not shown) [Example 5, 5-Amino-N-(3-chloro-4-fluorophenyl)-3-(5-hydroxy-5-(4-methoxyphenyl)octahydropentalen-2-yl)-1-methyl-1H-pyrazole-4-carboxamide] was below 10 nM; that for `Cc1ccc(C2(O)CC3CC(c4nn(C)c(N)c4C(=O)Nc4ccc(F)c(Cl)c4)CC3C2)cc1` (stereo not shown) [Example 6, 5-Amino-N-(3-chloro-4-fluorophenyl)-3-(5-hydroxy-5-(p-tolyl)octahydropentalen-2-yl)-1-methyl-1H-pyrazole-4-carboxamide] was below 10 nM; that for `Cc1ccc(C2(O)CC3CC(c4nn(C)c(N)c4C(=O)Nc4ccc(F)c(C#N)c4)CC3C2)cc1` (stereo not shown) [Example 7, 5-Amino-N-(3-cyano-4-fluorophenyl)-3-(5-hydroxy-5-(p-tolyl)octahydropentalen-2-yl)-1-methyl-1H-pyrazole-4-carboxamide] was below 10 nM.
Consider `Cc1ccccc1C1(O)CC2CC(c3nn(C)c(N)c3C(=O)Nc3ccc(F)c(Cl)c3)CC2C1` (stereo not shown) [Example 8, 5-Amino-N-(3-chloro-4-fluorophenyl)-3-(5-hydroxy-5-(o-tolyl)octahydropentalen-2-yl)-1-methyl-1H-pyrazole-4-carboxamide], for which the EC50 under setting [4] was below 10 nM.

As usually defined, the EC50 is the concentration giving half of the maximal effect.
